In ChEMBL document CHEMBL3217621, “Diaryl ether derivatives as anticancer agents a review” (Medchemcomm, 2012):
pIC50: −log10 of the molar value.

What was measured:
[1] = Inhibition of GGPTase-1 (unknown origin); design: species or system Homo sapiens
Interstitial collagenase = target: T1, Interstitial collagenase (Homo sapiens, UniProt P03956); test: Inhibition of MMP-1 (unknown origin)
T1 sequence (P03956 whole entry): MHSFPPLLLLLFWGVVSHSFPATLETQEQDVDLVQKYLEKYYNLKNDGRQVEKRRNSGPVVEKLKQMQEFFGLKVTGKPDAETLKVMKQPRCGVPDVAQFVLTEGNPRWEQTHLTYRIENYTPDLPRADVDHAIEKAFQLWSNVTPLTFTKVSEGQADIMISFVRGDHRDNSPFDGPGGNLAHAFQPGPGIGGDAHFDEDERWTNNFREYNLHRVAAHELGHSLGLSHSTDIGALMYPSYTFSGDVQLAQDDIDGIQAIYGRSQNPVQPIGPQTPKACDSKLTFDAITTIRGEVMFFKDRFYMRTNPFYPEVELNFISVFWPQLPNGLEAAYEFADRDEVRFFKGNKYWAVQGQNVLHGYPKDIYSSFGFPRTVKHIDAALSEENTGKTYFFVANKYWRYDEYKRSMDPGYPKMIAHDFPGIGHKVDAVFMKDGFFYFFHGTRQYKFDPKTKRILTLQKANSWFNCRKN

[2] = target: 72 kDa type IV collagenase (Homo sapiens, UniProt P08253); test: Inhibition of MMP-2 (unknown origin)
72 kDa type IV collagenase, sequence (P08253 whole entry): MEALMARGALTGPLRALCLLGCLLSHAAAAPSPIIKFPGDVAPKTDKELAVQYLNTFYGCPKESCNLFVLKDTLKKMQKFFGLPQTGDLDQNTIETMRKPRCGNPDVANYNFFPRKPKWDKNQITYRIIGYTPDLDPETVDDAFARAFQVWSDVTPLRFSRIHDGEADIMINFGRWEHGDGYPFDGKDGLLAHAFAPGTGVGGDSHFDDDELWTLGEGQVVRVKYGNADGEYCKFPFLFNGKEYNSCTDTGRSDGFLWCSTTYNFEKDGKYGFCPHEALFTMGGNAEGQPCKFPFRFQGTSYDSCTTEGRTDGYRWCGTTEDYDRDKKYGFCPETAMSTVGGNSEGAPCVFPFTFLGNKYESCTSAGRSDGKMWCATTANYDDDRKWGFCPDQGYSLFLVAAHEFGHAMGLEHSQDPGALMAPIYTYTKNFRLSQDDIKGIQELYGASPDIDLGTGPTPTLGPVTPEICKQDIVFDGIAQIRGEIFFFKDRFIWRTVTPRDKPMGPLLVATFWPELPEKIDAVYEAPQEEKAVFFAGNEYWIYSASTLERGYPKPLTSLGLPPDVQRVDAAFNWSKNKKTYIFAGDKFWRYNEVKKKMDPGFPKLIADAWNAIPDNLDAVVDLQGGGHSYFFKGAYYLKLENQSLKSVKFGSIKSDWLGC

[3] = Half life in cynomolgus monkey at 3 mg/kg, iv; assay type: ADME, organism-based, Macaca fascicularis; design: dose 3 mg/kg, route intravenous; settings: in vivo
[4] = AUC in cynomolgus monkey at 3 mg/kg, po; assay type: ADME, organism-based, Macaca fascicularis; design: dose 3 mg/kg, route oral; settings: plasma
Aromatase = target: T2, Aromatase (Homo sapiens, UniProt P11511); test: Inhibition of aromatase (unknown origin)
T2 sequence (P11511 whole entry): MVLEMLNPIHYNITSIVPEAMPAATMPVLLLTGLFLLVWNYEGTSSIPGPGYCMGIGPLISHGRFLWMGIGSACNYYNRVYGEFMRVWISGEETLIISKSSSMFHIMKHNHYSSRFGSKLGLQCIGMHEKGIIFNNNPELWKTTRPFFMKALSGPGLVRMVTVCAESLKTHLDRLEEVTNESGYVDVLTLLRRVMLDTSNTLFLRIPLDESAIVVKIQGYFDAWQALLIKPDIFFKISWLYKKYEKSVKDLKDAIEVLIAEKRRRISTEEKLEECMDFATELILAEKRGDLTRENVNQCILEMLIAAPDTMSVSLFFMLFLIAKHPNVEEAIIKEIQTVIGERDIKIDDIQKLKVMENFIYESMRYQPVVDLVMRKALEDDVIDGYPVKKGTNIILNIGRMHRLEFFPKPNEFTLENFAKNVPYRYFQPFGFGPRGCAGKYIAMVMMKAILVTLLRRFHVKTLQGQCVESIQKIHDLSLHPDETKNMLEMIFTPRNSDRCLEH

[5] = Cytotoxicity against human MOLT3 cells; assay type: functional, cell-based; settings: MOLT-3
HL-60 = test: Cytotoxicity against human HL60 cells; assay type: functional, cell-based
[6] = target: Matrix metalloproteinase-9 (Homo sapiens, UniProt P14780); test: Inhibition of MMP-9 (unknown origin)
Matrix metalloproteinase-9, sequence (P14780 whole entry): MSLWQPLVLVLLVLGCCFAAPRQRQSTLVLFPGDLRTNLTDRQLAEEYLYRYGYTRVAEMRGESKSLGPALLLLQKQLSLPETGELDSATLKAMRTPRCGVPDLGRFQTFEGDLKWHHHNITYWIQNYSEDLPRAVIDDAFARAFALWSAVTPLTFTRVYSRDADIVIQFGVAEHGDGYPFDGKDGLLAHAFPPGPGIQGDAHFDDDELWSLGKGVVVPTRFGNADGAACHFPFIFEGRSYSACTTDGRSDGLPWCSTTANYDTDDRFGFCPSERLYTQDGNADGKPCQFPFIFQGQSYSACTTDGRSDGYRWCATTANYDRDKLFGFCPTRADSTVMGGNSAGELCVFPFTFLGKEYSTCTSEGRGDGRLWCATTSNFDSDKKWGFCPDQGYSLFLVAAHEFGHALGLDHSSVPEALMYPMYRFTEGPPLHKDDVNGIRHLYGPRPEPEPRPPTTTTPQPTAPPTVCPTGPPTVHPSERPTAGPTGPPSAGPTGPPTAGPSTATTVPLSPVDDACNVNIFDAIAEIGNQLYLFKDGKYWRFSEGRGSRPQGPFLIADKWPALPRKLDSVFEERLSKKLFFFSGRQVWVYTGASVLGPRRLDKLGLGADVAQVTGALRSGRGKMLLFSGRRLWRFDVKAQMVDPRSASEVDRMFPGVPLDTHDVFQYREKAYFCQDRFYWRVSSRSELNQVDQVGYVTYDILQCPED

HUVEC = test: Antiproliferative activity against bFGF-treated HUVEC; assay type: functional, cell-based; settings: Homo sapiens
[7] = Selectivity index, ratio of IC50 for human KB3-1 cells to IC50 for bFGF-treated HUVEC; design: species or system KB 3-1
PC-3 [8] = test: Cytotoxicity against human PC3 cells assessed as growth inhibition after 48 hrs by MTT assay; assay type: functional, cell-based; settings: PC-3, 48 h
PC-3 [9] = test: Induction of apoptosis in human PC3 cells at 10 uM after 24 hrs by propidium iodide/Hochest33342 staining-based flow cytometry (reference value: 0.05%); assay type: functional
[10] = Cytotoxicity against human RPE1 cells assessed as cell viability after 24 to 72 hrs by MTT assay; assay type: cell-based, TERT-RPE1; settings: RPE-1
P388 = test: Cytotoxicity against mouse P388 cells assessed as growth inhibition after 5 days by MTT assay; assay type: functional, cell-based; settings: P388, 120 h

Work on `CC[C@@]1(c2cccc(Oc3cc(Cn4ccnc4)ccc3C#N)c2)CCCCN(C)C1=O` yielded a pIC50 [1] of 8.24.
In the case of `C[C@@H]1OC(C)(C)O[C@H]1C(CS(=O)(=O)c1ccc(Oc2ccc(OC(F)(F)F)cc2)cc1)N(O)C=O` (stereo partly specified), the pIC50 (Interstitial collagenase) was < 4.30, the pIC50 [2] was 8.72 and the half-life [3] was 19.5 h. For the same compound, the AUC [4] was 21 µM·h.
`CC1(C)OC[C@H]([C@@H](CS(=O)(=O)c2ccc(Oc3ccc(OC(F)(F)F)cc3)cc2)N(O)C=O)O1` showed a half-life [3] of 16.8 h and an AUC [4] of 53 µM·h.
`N#Cc1ccc(Cn2ccnc2)cc1Oc1ccc(Cl)cc1Cl` gave a pIC50 [1] of 6.55.
With `COc1cccc(Oc2cc(Cn3ccnc3)ccc2C#N)c1OC` the pIC50 [1] was 4.82.
Work on `N#Cc1ccc(Cn2ccnc2)cc1Oc1ccccc1` yielded a pIC50 [1] of 5.43.
In the case of `CC[C@@]1(c2cccc(Oc3cc([C@](C)(N)c4cncn4C)ccc3C#N)c2)CCCCN(C)C1=O`, the pIC50 [1] was 8.44.
With `O=CN(O)C(CS(=O)(=O)c1ccc(Oc2ccc(OC(F)(F)F)cc2)cc1)C1CCC2(CC1)OCCO2` (stereo unspecified) the pIC50 (Interstitial collagenase) was < 4.30.
In the case of `O=CN(O)C(COCCO)CS(=O)(=O)c1ccc(Oc2ccc(OC(F)(F)F)cc2)cc1` (stereo unspecified), the half-life [3] was 1.91 h.
With `Cc1cc(O)cc2c1Oc1cc(O)cc(C)c1C(=O)O2` the pIC50 (Aromatase) was 5.28.
Compound `COc1cc(C)cc(Oc2c(C)cc(OC)cc2OC)c1` has a pIC50 [5] of 5.85 and a pIC50 (HL-60) of 5.66.
In the case of `O=CN(O)C(Cc1ccc(C(=O)O)cc1)CS(=O)(=O)c1ccc(Oc2ccc(OC(F)(F)F)cc2)cc1` (stereo unspecified), the pIC50 (Interstitial collagenase) was < 4.30, the pIC50 [2] was 9.28 and the pIC50 [6] was 9.28. The AUC [4] was 16 µM·h.
For `O=CN(O)C(CS(=O)(=O)c1ccc(Oc2ccc(OC(F)(F)F)cc2)cc1)[C@H]1CCCO1` (stereo partly specified), the pIC50 (Interstitial collagenase) was < 4.30, the pIC50 [2] was 9.21 and the pIC50 [6] was 9.49. For the same compound, the AUC [4] was 26 µM·h.
In the case of `CC1(C)OC[C@H](CC(CS(=O)(=O)c2ccc(Oc3ccc(OC(F)(F)F)cc3)cc2)N(O)C=O)O1` (stereo partly specified), the pIC50 (Interstitial collagenase) was < 4.30, the pIC50 [2] was 8.82 and the pIC50 [6] was 8.26. The AUC [4] was 2 µM·h.
With `O=C1CCc2cc(Br)c(c(Br)c2)Oc2cc(ccc2O)CCC(=O)NCCc2cc(Br)c(c(Br)c2)Oc2cc(cc(Br)c2O)CCN1` the pIC50 (HUVEC) was 5.40 and the “Ratio IC50” value [7] was 1.6.
In the case of `N[C@@H]1Cc2cc(Br)c(c(Br)c2)Oc2cc(ccc2O)C[C@H](N)C(=O)NCCc2cc(Br)c(c(Br)c2)Oc2cc(cc(Br)c2O)CCNC1=O`, the pIC50 (HUVEC) was 6.21 and the “Ratio IC50” value [7] was 26.2.
In the case of `Nc1cc2cc(c1O)Oc1c(Br)cc(cc1Br)CCNC(=O)/C(=N/O)Cc1cc(N)c(O)c(c1)Oc1c(Br)cc(cc1Br)C/C(=N/O)C(=O)NCC2`, the pIC50 (HUVEC) was 6.02 and the “Ratio IC50” value [7] was 3.4.
With `COc1ccc2cc1Oc1ccc(cc1)CCc1ccc(c(O)c1)Oc1cccc(c1)CC2` the pIC50 (PC-3 [8]) was 5.10, the Activity (PC-3 [9]) was 9.4% and the pIC50 [10] was 4.30.
`COc1ccc(O)c2c1Oc1cccc(c1)CCc1ccc(O)c(c1)Oc1ccc(cc1)CC2` showed a pIC50 (PC-3 [8]) of 5.26, an Activity (PC-3 [9]) of 51.62% and a pIC50 [10] of 4.30.
In the case of `CCC1(c2cccc(Oc3cc(C(N)c4cncn4C)ccc3C#N)c2)CCCCN(C)C1=O` (stereo unspecified), the pIC50 [1] was 8.10.
In the case of `O=CN(O)C(CS(=O)(=O)c1ccc(Oc2ccc(OC(F)(F)F)cc2)cc1)[C@H](O)CO` (stereo partly specified), the half-life [3] was 1 h and the AUC [4] was 3 µM·h.
For `CCC1(c2cccc(Oc3cc(C(C)(N)c4cncn4C)ccc3C#N)c2)CCCCN(C)C1=O` (mixture of isomers), the pIC50 [1] was 8.29.
`CCC1(c2cccc(Oc3cc(Cc4cncn4C)ccc3C#N)c2)CCCCN(C)C1=O` (racemic) gave a pIC50 [1] of 8.00.
Work on `CCC1(c2cccc(Oc3cc(Cn4ccnc4)ccc3C#N)c2)CCCCN(C)C1=O` (racemic) yielded a pIC50 [1] of 8.15.
In the case of `O=C1N/C=C/c2ccc(c(Br)c2)Oc2cc(cc(Br)c2O)CCNC(=O)/C(=N/O)Cc2cc(Br)c(c(Br)c2)Oc2cc(cc(Br)c2O)C/C1=N\O` [BASTADIN 4], the pIC50 (HUVEC) was 7.28 and the “Ratio IC50” value [7] was 38.
For `O=C1NCCc2cc(Br)c(O)c(c2)Oc2ccc(cc2Br)CCNC(=O)/C(=N\O)Cc2cc(Br)c(O)c(c2)Oc2c(Br)cc(cc2Br)C/C1=N/O` [BASTADIN 5], the pIC50 (HUVEC) was 7.21 and the “Ratio IC50” value [7] was 76.
In the case of `O=C1NCCc2cc(Br)c(O)c(c2)Oc2c(Br)cc(cc2Br)CCNC(=O)/C(=N/O)Cc2cc(Br)c(O)c(c2)Oc2c(Br)cc(cc2Br)C/C1=N\O` [BASTADIN 6], the pIC50 (HUVEC) was 7.28 and the “Ratio IC50” value [7] was 41.
With `O=C1N/C=C/c2ccc(c(Br)c2)Oc2cc(cc(Br)c2O)CCNC(=O)/C(=N/O)Cc2ccc(c(Br)c2)Oc2cc(cc(Br)c2O)C/C1=N\O` [BASTADIN 7] the pIC50 (HUVEC) was 7.27 and the “Ratio IC50” value [7] was 56.
With `O=C1N/C=C/c2ccc(c(Br)c2)Oc2cc(ccc2O)CCNC(=O)/C(=N/O)Cc2cc(Br)c(c(Br)c2)Oc2cc(cc(Br)c2O)C/C1=N\O` [BASTADIN 11] the pIC50 (HUVEC) was 7.28 and the “Ratio IC50” value [7] was 38.
For `O=C1NCCc2ccc(c(Br)c2)Oc2cc(ccc2O)CCNC(=O)/C(=N/O)Cc2cc(Br)c(O)c(c2)Oc2c(Br)cc(cc2Br)C/C1=N\O` [BASTADIN 13], the pIC50 (HUVEC) was 6.28 and the “Ratio IC50” value [7] was 14.
With `O=C1NCCc2ccc(c(Br)c2)Oc2cc(cc(Br)c2O)CCNC(=O)/C(=N/O)Cc2cc(Br)c(O)c(c2)Oc2c(Br)cc(cc2Br)C/C1=N\O` [BASTADIN 19] the pIC50 (HUVEC) was 6.92 and the “Ratio IC50” value [7] was 19.
With `COc1ccc(/C=C\c2cc(OC)c(OC)c(OC)c2)cc1O` [COMBRETASTATIN A4] the pIC50 (P388) was 8.59.
`COc1cc([C@@H]2c3cc4c(cc3[C@@H](O[C@@H]3O[C@@H]5CO[C@@H](C)O[C@H]5[C@H](O)[C@H]3O)[C@H]3COC(=O)[C@H]23)OCO4)cc(OC)c1O` [ETOPOSIDE] showed a pIC50 [5] of 7.70 and a pIC50 (HL-60) of 6.21.
For `Oc1ccc2c(c1)CCc1ccc(cc1)Oc1cc(ccc1O)CCc1ccc-2c(O)c1` [RICCARDI C], the pIC50 (PC-3 [8]) was 5.49, the Activity (PC-3 [9]) was 6.21% and the pIC50 [10] was 4.30.
